Results published in US20250302815A1, “PROTEIN TYROSINE PHOSPHATASE TARGETING LIGANDS” (CALICO LIFE SCIENCES LLC, priority 2021, published 2025).

Key:
[1] = target: T1, PTPN2 (HiBIT-PTPN2 in 293T.109 cells) (Homo sapiens, UniProt P17706); assay: HiBiT Degradation 293T.109 PTPN2 (Nano-Glo HiBiT Lytic Assay); format: cell-based; settings: 24.0 hours
T1 construct: expressed in transfected cells; host or cells: 293T.109 (293T WT from ATCC)
T1 sequence (P17706 1-415): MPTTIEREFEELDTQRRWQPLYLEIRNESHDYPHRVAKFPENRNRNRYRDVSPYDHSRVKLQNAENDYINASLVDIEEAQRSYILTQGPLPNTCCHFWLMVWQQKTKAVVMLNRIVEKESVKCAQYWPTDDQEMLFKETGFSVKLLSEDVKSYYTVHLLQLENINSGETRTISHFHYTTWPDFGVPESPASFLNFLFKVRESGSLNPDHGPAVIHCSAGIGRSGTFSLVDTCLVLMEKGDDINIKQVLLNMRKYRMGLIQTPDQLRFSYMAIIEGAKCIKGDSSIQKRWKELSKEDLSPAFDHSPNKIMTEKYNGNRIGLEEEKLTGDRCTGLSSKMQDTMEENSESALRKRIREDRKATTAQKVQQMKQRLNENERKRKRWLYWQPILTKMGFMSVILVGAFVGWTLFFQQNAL
Procedure, shortened: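 293T.109 cells with ectopic N-terminal HiBiT-tagged PTPN2 (5000/well) exposed to compounds for 24 h at 37 °C, 5% CO2; 11-point half-log titration from 10 μM top, duplicates. Remaining HiBiT-PTPN2 read as luminescence with Nano-Glo HiBiT lytic reagent, normalised to untreated cells (0%) and reagent-free wells.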

PTPN2 (B16F10.4 cells) = target: T2, PTPN2 (B16F10.4 cells) (Mus musculus, UniProt Q06180); assay: HiBiT Degradation B16F10.4 PTPN2; format: cell-based; settings: 24.0 hours
T2 construct: HiBiT; host or cells: B16F10.4
T2 sequence (Q06180 1-406): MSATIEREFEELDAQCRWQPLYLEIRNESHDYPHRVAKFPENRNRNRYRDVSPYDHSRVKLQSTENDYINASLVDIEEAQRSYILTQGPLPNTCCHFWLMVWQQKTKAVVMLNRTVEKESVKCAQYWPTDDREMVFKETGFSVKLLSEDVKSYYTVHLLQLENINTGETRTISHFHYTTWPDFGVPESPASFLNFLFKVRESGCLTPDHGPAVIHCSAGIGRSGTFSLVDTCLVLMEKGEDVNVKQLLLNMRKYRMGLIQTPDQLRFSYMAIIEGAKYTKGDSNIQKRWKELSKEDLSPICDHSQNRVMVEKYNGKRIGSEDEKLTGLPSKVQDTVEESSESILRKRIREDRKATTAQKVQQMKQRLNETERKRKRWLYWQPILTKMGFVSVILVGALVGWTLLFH

DC50 [1]	DC50 (PTPN2 (B16F10.4 cells))	Compound
< 50 nM	< 50 nM	CC1(C)C[C@@H](Nc2cccc(-c3sc(C(=O)O)c(OCC(=O)O)c3Cl)c2)CCN1S(=O)(=O)Cc1cccc(N2CCN(C3CCN(c4ccc5c6c(cccc46)C(=O)N5C4CCC(=O)NC4=O)CC3)C2=O)c1 (stereo partly drawn) [Example 189, 3-(carboxymethoxy)-4-chloro-5-(3-(((4S)-1-((3-(3-(1-(1-(2,6-dioxopiperidin-3-yl)-2-oxo-1,2-dihydrobenzo[cd]indol-6-yl)piperidin-4-yl)-2-oxoimidazolidin-1-yl)benzyl)sulfonyl)-2,2-dimethylpiperidin-4-yl)amino)phenyl)thiophene-2-carboxylic acid]
< 50 nM	50 to 200 nM	Cn1c(=O)n(C2CCC(=O)NC2=O)c2ccc(C3CCN(C(=O)Nc4cccc(CS(=O)(=O)N5CC[C@H](Nc6cccc(-c7sc(C(=O)O)c(OCC(=O)O)c7Cl)c6)CC56CC6)c4)CC3)cc21 (stereo partly drawn) [Example 190, 3-(carboxymethoxy)-4-chloro-5-(3-(((7S)-4-((3-(4-(1-(2,6-dioxopiperidin-3-yl)-3-methyl-2-oxo-2,3-dihydro-1H-benzo[d]imidazol-5-yl)piperidine-1-carboxamido)benzyl)sulfonyl)-4-azaspiro[2.5]octan-7-yl)amino)phenyl)thiophene-2-carboxylic acid]
50 to 200 nM	50 to 200 nM	Cn1c(=O)n(C2CCC(=O)NC2=O)c2ccc(Nc3cccc(CC(=O)Nc4cccc(CS(=O)(=O)N5CC[C@H](Nc6cccc(-c7sc(C(=O)O)c(OCC(=O)O)c7Cl)c6)CC5(C)C)c4)c3)cc21 (stereo partly drawn) [Example 191, 3-(carboxymethoxy)-4-chloro-5-(3-(((4S)-1-((3-(2-(3-((1-(2,6-dioxopiperidin-3-yl)-3-methyl-2-oxo-2,3-dihydro-1H-benzo[d]imidazol-5-yl)amino)phenyl)acetamido)benzyl)sulfonyl)-2,2-dimethylpiperidin-4-yl)amino)phenyl)thiophene-2-carboxylic acid]
50 to 200 nM	50 to 200 nM	Cn1c(=O)n(C2CCC(=O)NC2=O)c2ccc(-c3cccc(CC(=O)Nc4cccc(CS(=O)(=O)N5CC[C@H](Nc6cccc(-c7sc(C(=O)O)c(OCC(=O)O)c7Cl)c6)CC5(C)C)c4)c3)cc21 (stereo partly drawn) [Example 192, 3-(carboxymethoxy)-4-chloro-5-(3-(((4S)-1-((3-(2-(3-(1-(2,6-dioxopiperidin-3-yl)-3-methyl-2-oxo-2,3-dihydro-1H-benzo[d]imidazol-5-yl)phenyl)acetamido)benzyl)sulfonyl)-2,2-dimethylpiperidin-4-yl)amino)phenyl)thiophene-2-carboxylic acid]
200 to 1000 nM	200 to 1000 nM	CC1(C)C[C@H](Nc2cccc(-c3sc(C(=O)O)c(OCC(=O)O)c3Cl)c2)CCN1S(=O)(=O)Cc1cccc(NC(=O)N2CCC(c3ccc4c(C5CCC(=O)NC5=O)cnn4c3)CC2)c1 (stereo partly drawn) [Example 193, 3-(carboxymethoxy)-4-chloro-5-(3-(((4R)-1-((3-(4-(3-(2,6-dioxopiperidin-3-yl)pyrazolo[1,5-a]pyridin-6-yl)piperidine-1-carboxamido)benzyl)sulfonyl)-2,2-dimethylpiperidin-4-yl)amino)phenyl)thiophene-2-carboxylic acid]
200 to 1000 nM	50 to 200 nM	Cn1c(=O)n(C2CCC(=O)NC2=O)c2ccc(-c3cnn(CC(=O)Nc4cccc(CS(=O)(=O)N5CC[C@H](Nc6cccc(-c7sc(C(=O)O)c(OCC(=O)O)c7Cl)c6)CC5(C)C)c4)c3)cc21 (stereo partly drawn) [Example 194, 3-(carboxymethoxy)-4-chloro-5-[3-[[(4S)-1-[[3-[[2-[4-[1-(2,6-dioxo-3-piperidyl)-3-methyl-2-oxo-benzimidazol-5-yl]pyrazol-1-yl]acetyl]amino]phenyl]methylsulfonyl]-2,2-dimethyl-4-piperidyl]amino]phenyl]thiophene-2-carboxylic acid]
200 to 1000 nM	200 to 1000 nM	CC1(C)C[C@@H](Nc2cccc(-c3sc(C(=O)O)c(OCC(=O)O)c3Cl)c2)CCN1S(=O)(=O)Cc1cccc(NC(=O)N2CCC(c3ccc4c(c3)c3cccnc3n4C3CCC(=O)NC3=O)CC2)c1 (stereo partly drawn) [Example 195, 3-(carboxymethoxy)-4-chloro-5-[3-[[(4S)-1-[[3-[[4-[9-(2,6-dioxo-3-piperidyl)pyrido[2,3-b]indol-6-yl]piperidine-1-carbonyl]amino]phenyl]methylsulfonyl]-2,2-dimethyl-4-piperidyl]amino]phenyl]thiophene-2-carboxylic acid]
200 to 1000 nM	200 to 1000 nM	CC1(C)C[C@@H](Nc2cccc(-c3sc(C(=O)O)c(OCC(=O)O)c3Cl)c2)CCN1S(=O)(=O)Cc1cccc(NC(=O)N2CCC(c3ccc4c(ccn4C4CCC(=O)NC4=O)c3)CC2)c1 (stereo partly drawn) [Example 196, 3-(carboxymethoxy)-4-chloro-5-(3-(((4S)-1-((3-(4-(1-(2,6-dioxopiperidin-3-yl)-1H-indol-5-yl)piperidine-1-carboxamido)benzyl)sulfonyl)-2,2-dimethylpiperidin-4-yl)amino)phenyl)thiophene-2-carboxylic acid]
< 50 nM	50 to 200 nM	Cn1c(=O)n(C2CCC(=O)NC2=O)c2ccc(N3CCC(NCCNc4cccc(CS(=O)(=O)N5CC[C@H](Nc6cccc(-c7sc(C(=O)O)c(OCC(=O)O)c7Cl)c6)CC5(C)C)c4)CC3)cc21 (stereo partly drawn) [Example 197, 3-(carboxymethoxy)-4-chloro-5-[3-[[(4S)-1-[[3-[2-[[1-[1-(2,6-dioxo-3-piperidyl)-3-methyl-2-oxo-benzimidazol-5-yl]-4-piperidyl]amino]ethylamino]phenyl]methylsulfonyl]-2,2-dimethyl-4-piperidyl]amino]phenyl]thiophene-2-carboxylic acid]
50 to 200 nM	50 to 200 nM	Cn1c(=O)n(C2CCC(=O)NC2=O)c2ccc(N3CCC(N4CCN(c5cccc(CS(=O)(=O)N6CC[C@H](Nc7cccc(-c8sc(C(=O)O)c(OCC(=O)O)c8Cl)c7)CC6(C)C)c5)C4=O)CC3)cc21 (stereo partly drawn) [Example 198, 3-(carboxymethoxy)-4-chloro-5-[3-[[(4S)-1-[3-[3-[[1-[1-(2,6-dioxo-3-piperidyl)-3-methyl-2-oxo-benzimidazol-5-yl]-4-piperidyl]-2-oxo-imidazolidin-1-yl]phenyl]methylsulfonyl]-2,2-dimethyl-4-piperidyl]amino]phenyl]thiophene-2-carboxylic acid]
50 to 200 nM	50 to 200 nM	CCn1nc(C2CCC(=O)NC2=O)c2ccc(C3CCN(C(=O)Nc4cccc(CS(=O)(=O)N5CC[C@H](Nc6cccc(-c7sc(C(=O)O)c(OCC(=O)O)c7Cl)c6)CC5(C)C)c4)CC3(F)F)cc21 (stereo partly drawn) [Example 200, 3-(carboxymethoxy)-4-chloro-5-[3-[[(4S)-1-[[3-[[4-[3-(2,6-dioxo-3-piperidyl)-1-ethyl-indazol-6-yl]-3,3-difluoro-piperidine-1-carbonyl]amino]phenyl]methylsulfonyl]-2,2-dimethyl-4-piperidyl]amino]phenyl]thiophene-2-carboxylic acid]
50 to 200 nM	50 to 200 nM	CC1(C)C[C@@H](Nc2cccc(-c3sc(C(=O)O)c(OCC(=O)O)c3Cl)c2)CCN1S(=O)(=O)Cc1cccc(NCCNCCCc2ccc3c4c(cccc24)C(=O)N3C2CCC(=O)NC2=O)c1 (stereo partly drawn) [Example 201]
200 to 1000 nM	50 to 200 nM	CC1(C)C[C@@H](Nc2cccc(-c3sc(C(=O)O)c(OCC(=O)O)c3Cl)c2)CCN1S(=O)(=O)Cc1cccc(N2CCN(CCCc3ccc4c5c(cccc35)C(=O)N4C3CCC(=O)NC3=O)C2=O)c1 (stereo partly drawn) [Example 202]
200 to 1000 nM	50 to 200 nM	Cn1c(=O)n(C2CCC(=O)NC2=O)c2ccc(C3CCCN(C(=O)Nc4cccc(CS(=O)(=O)N5CC[C@H](Nc6cccc(-c7sc(C(=O)O)c(OCC(=O)O)c7Cl)c6)CC5(C)C)c4)C3)cc21 (stereo partly drawn) [Example 203, 3-(carboxymethoxy)-4-chloro-5-[3-[[(4S)-1-[[3-[[3-[1-(2,6-dioxo-3-piperidyl)-3-methyl-2-oxo-benzimidazol-5-yl]piperidine-1-carbonyl]amino]phenyl]methylsulfonyl]-2,2-dimethyl-4-piperidyl]amino]phenyl]thiophene-2-carboxylic acid]
50 to 200 nM	50 to 200 nM	CC(C)n1c(=O)n(C2CCC(=O)NC2=O)c2ccc(C3CCN(CC(=O)Nc4cccc(CS(=O)(=O)N5CC[C@H](Nc6cccc(-c7sc(C(=O)O)c(OCC(=O)O)c7Cl)c6)CC5(C)C)c4)CC3)cc21 (stereo partly drawn) [Example 204, 3-(carboxymethoxy)-4-chloro-5-(3-(((4S)-1-((3-(2-(4-(1-(2,6-dioxopiperidin-3-yl)-3-isopropyl-2-oxo-2,3-dihydro-1H-benzo[d]imidazol-5-yl)piperidin-1-yl)acetamido)benzyl)sulfonyl)-2,2-dimethylpiperidin-4-yl)amino)phenyl)thiophene-2-carboxylic acid]
